Data published in ChEMBL document CHEMBL1268881, “Peripheral but crucial: a hydrophobic pocket (Tyr(706), Leu(337), and Met(336)) for potent and selective inhibition of neuronal nitric oxide synthase” (Bioorg Med Chem Lett, 2010).

Key:
[1] = target: T1, Nitric oxide synthase, inducible (Mus musculus, UniProt P29477); assay: Inhibition of mouse iNOS expressed in Escherichia coli assessed as inhibition of nitric oxide formation by hemoglobin capture assay
T1 sequence (P29477 whole entry): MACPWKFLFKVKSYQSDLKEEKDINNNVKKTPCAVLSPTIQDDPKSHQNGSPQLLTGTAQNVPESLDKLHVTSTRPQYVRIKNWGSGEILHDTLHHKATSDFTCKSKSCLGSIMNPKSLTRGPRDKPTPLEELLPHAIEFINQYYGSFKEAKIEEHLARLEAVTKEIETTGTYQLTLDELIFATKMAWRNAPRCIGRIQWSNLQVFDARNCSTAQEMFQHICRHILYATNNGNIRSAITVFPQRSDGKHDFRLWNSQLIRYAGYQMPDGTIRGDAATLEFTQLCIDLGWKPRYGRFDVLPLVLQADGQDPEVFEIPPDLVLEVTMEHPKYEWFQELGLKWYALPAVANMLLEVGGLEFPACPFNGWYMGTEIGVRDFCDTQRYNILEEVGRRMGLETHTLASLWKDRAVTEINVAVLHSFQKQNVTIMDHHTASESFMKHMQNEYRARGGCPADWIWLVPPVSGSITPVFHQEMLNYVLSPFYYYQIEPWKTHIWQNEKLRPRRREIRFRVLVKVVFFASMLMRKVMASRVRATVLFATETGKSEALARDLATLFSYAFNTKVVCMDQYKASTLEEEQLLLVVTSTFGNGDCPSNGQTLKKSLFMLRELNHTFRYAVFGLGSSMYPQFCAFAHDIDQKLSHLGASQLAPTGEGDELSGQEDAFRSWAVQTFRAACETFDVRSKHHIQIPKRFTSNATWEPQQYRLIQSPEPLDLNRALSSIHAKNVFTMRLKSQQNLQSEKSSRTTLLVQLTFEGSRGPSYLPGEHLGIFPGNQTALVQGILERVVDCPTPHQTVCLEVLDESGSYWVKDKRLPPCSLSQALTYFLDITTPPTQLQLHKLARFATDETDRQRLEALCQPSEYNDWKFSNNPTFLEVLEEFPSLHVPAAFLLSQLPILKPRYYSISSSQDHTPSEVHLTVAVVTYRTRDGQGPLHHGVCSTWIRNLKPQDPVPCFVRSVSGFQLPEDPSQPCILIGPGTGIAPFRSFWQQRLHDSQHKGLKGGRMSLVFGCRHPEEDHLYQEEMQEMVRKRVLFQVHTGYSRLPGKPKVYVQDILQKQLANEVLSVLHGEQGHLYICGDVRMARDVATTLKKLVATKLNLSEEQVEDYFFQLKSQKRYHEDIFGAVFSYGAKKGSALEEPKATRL

Nitric oxide synthase 1 [2] = target: Nitric oxide synthase 1 (Homo sapiens, UniProt P29475); assay: Inhibition of human nNOS expressed in Escherichia coli assessed as inhibition of nitric oxide formation by hemoglobin capture assay
Sequence of Nitric oxide synthase 1 (Homo sapiens, UniProt P29475) (P29475 whole entry): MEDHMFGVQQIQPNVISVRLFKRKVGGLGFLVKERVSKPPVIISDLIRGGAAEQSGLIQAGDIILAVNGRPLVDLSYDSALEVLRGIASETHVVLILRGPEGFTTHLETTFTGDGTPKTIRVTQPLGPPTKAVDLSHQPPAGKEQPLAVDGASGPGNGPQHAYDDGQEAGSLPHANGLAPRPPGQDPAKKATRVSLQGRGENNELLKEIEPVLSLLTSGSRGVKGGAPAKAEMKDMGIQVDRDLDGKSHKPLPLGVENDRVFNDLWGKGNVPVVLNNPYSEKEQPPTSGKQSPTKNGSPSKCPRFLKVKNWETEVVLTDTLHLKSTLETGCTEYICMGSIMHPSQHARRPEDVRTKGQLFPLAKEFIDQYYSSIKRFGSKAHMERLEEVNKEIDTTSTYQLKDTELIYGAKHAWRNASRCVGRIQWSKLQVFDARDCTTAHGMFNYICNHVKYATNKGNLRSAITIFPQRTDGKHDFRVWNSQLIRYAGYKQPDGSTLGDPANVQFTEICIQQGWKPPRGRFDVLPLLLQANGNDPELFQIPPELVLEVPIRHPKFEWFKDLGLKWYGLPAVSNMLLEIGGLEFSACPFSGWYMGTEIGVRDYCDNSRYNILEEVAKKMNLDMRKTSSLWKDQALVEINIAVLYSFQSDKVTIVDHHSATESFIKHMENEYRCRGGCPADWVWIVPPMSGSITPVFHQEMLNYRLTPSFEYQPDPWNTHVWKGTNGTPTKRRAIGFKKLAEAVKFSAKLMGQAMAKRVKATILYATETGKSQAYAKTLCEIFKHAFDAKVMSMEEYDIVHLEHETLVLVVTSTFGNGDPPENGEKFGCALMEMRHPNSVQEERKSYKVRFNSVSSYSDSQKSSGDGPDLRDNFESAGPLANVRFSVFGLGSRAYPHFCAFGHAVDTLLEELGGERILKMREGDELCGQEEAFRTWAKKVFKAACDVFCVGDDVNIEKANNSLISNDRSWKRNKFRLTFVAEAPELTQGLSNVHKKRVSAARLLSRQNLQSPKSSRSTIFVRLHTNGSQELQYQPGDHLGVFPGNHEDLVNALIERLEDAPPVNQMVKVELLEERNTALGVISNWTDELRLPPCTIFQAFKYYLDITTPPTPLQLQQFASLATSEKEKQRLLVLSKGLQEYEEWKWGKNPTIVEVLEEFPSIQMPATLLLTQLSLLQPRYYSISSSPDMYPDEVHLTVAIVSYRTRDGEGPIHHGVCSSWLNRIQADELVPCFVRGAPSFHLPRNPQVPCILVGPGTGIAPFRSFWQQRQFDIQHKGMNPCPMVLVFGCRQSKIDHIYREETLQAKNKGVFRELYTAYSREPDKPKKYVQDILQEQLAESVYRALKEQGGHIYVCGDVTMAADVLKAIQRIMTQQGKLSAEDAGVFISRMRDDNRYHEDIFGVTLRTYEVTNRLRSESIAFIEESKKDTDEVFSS

Nitric oxide synthase 3 = target: T2, Nitric oxide synthase 3 (Bos taurus, UniProt P29473)
T2 sequence (P29473 whole entry): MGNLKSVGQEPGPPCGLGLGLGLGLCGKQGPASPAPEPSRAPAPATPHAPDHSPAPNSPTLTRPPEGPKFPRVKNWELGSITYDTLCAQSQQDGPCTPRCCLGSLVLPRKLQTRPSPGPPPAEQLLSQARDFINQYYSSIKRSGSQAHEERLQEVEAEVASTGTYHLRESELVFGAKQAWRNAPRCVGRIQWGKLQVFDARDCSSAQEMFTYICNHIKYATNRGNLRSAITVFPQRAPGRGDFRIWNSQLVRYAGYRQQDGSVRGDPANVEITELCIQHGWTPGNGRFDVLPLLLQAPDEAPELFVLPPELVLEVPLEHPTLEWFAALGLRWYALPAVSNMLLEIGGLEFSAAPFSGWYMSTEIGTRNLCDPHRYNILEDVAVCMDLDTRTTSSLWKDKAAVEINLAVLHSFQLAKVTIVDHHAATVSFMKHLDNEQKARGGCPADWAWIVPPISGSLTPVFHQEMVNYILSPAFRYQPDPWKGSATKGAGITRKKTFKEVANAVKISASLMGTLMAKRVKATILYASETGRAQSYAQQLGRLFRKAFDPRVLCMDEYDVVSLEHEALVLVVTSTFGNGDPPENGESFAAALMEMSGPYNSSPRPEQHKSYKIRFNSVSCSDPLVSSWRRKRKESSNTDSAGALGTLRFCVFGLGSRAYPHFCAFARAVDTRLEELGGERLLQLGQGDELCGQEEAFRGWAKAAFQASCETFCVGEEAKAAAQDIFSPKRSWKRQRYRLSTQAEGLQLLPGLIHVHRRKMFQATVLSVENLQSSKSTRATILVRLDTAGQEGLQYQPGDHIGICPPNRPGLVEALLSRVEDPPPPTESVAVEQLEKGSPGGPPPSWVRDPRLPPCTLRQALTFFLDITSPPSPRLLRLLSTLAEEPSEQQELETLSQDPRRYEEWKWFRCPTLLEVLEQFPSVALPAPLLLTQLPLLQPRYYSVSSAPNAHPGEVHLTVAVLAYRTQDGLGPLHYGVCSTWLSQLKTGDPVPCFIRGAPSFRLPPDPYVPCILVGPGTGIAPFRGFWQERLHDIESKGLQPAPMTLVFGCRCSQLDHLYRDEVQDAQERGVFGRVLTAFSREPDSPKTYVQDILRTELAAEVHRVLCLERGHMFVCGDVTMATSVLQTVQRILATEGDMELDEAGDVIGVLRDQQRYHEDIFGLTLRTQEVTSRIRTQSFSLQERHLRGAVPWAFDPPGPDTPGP
Description: Inhibition of bovine eNOS expressed in Escherichia coli assessed as inhibition of nitric oxide formation by hemoglobin capture assay

Nitric oxide synthase 1 [3] = target: Nitric oxide synthase 1 (Rattus norvegicus, UniProt P29476); assay: Inhibition of rat nNOS expressed in Escherichia coli assessed as inhibition of nitric oxide formation by hemoglobin capture assay
Sequence of Nitric oxide synthase 1 (Rattus norvegicus, UniProt P29476) (P29476 whole entry): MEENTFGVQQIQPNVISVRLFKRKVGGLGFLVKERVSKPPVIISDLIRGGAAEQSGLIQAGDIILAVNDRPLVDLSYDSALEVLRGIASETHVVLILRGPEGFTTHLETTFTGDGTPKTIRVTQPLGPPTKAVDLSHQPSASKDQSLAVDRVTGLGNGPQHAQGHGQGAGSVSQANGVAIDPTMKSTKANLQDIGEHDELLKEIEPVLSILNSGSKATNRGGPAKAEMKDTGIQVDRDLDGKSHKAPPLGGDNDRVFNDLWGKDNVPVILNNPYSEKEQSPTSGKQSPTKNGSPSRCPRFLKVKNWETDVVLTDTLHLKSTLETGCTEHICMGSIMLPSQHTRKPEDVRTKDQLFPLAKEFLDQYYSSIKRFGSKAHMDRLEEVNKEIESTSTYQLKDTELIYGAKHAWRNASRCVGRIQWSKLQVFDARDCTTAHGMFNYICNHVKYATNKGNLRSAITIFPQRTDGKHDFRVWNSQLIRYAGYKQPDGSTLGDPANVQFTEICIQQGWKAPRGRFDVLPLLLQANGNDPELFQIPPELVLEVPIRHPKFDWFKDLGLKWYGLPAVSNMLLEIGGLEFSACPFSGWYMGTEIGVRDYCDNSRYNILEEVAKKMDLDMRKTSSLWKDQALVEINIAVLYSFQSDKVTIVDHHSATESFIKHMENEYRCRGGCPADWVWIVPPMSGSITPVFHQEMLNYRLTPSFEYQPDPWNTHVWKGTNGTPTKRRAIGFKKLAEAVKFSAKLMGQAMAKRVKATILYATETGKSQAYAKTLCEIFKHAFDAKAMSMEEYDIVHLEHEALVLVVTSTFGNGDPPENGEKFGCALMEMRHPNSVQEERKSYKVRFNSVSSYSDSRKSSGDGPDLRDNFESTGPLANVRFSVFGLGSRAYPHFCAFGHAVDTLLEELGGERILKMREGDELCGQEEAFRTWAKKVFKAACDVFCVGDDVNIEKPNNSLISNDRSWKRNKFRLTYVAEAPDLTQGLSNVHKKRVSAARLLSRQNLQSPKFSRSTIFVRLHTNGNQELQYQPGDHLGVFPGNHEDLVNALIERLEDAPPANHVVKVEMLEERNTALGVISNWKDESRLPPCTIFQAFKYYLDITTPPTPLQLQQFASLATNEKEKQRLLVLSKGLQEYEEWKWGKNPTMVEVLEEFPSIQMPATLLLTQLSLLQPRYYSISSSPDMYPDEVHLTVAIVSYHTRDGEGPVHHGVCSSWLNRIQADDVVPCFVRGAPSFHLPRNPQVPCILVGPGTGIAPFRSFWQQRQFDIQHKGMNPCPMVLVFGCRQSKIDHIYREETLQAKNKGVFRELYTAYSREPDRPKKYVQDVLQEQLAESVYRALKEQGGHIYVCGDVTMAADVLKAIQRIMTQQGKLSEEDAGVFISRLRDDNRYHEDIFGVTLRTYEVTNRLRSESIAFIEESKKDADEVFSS

Row | SMILES | Ki [1] [µM] | Ki (Nitric oxide synthase 1 [2]) [nM] | Ki (Nitric oxide synthase 3) [µM] | Ki (Nitric oxide synthase 1 [3]) [nM]
1 | Nc1cccc(C[C@@H]2CNC[C@@H]2OCCNCCc2cccc(F)c2)n1 | 10 | 290 | 58 | 50
2 | Nc1cccc(C[C@H]2CNC[C@H]2OCCNCCc2cccc(F)c2)n1 | 13.2 | 1800 | 59 | 220
3 | NC1=NC(C[C@@H]2CNC[C@@H]2OCCNCCc2cccc(F)c2)CCC1 (stereo partly drawn) | 21.8 | 490 | 58 | 110
4 | Cc1cc(N)nc(C[C@@H]2CNC[C@@H]2OCCNCCc2cccc(F)c2)c1 | – | 50 | – | –
